Read-outs that look alike come from different tables or passages of the source.
Columns and labels:
HCV-Luc [1] = experiment: HCV-Luc infection assay; format: cell-based; settings: for EC50: Hepatitis C virus
in vitro = settings: human
From the text: (§1) EC50 was generated using the HCV-Luc infection assay and IC50 using the ATPLite assay.
(§2) EC50 was generated using the HCV-Luc infection assay and TC50 using the ATPLite assay.
(§3) The cytotoxicity of the compounds was further evaluated in HepG2 cells and primary human hepatocytes.

Huh7.5.1 cells = experiment: in vitro; settings: human
From the text: as §1, §2, §3

[2] = tested on: HCVcc, genotype 2a, JFH-1 strain; experiment: HCVcc assay, extracellular and intracellular viral RNA by quantitative real-time PCR; format: cell-based, HCV; settings: compound at 10 μM; Huh 7.5.1 cells; 48 h; vs DMSO
Protocol: Huh 7.5.1 cells were seeded in 12-well plates (10^5 cells/well) and cultured overnight. HCVcc was used to infect the cells with the treatment of compounds at 10 μM. Virus-containing medium was removed after 4 h incubation and compound treatment was added back followed by incubation for additional 48 h. Intracellular and extracellular viral RNA levels were evaluated by quantitative real-time PCR. The results are illustrated in FIG. 1 and are the means of three replicates ±SEM. […] Cyclosporin A at 10 μM was used as positive control.
Cell Culture-derived HCV (HCVcc, genotype 2a, JFH-1 strain) system provides direct evidence of anti-HCV activity of the compounds.
Cell Culture-derived HCV (HCVcc, genotype 2a, JFH-1 strain) system provides direct evidence of anti-HCV activity of the compounds. Determination of both extracellular and intracellular HCV levels can help evaluate whether the compounds interfere early-stage or late-stage infection. […] Cyclosporin A was tested in parallel to serve as control compound targeting early-stage HCV infection. […] At the highest concentration, cyclosporin A caused approximately 4-log fold reduction in intracellular RNA copies, while the extracellular level reduced less than […]. On the contrary, NCGC00345021 led to only about 1-log fold decrease in intracellular RNA copies when causing 3-log fold reduction in extracellular RNA level. Clearly, when the concentration increased, NCGC00345021 led to a more dramatic reduction in extracellular RNA copies.

HCVsc, genotype 2a = format: cell-based, HCV; settings: 10 μM; Huh 7.5.1 cells; luciferase 48 h
HCV replicon GT 1b = format: cell-based; settings: 10 μM; luciferase 48 h
HCV replicon GT 2a = format: cell-based; settings: 10 μM; luciferase 48 h
replicon GT 1a = experiment: Transient replicon assay, GT 1a; format: cell-based, HCV; settings: 10 μM; 48 h; Huh7.5.1 cells
HCVpp GT 1a = format: cell-based, HCV; settings: 10 μM; Huh 7.5.1 cells
HCVpp GT 1b = format: cell-based, HCV; settings: 10 μM; Huh 7.5.1 cells
[3] = ATPlite assay run in parallel with the combination HCV-Luc assay; format: cell-based; settings: (S)-CCZ combined with anti-HCV drugs
Protocol: Combination of ribavirin and peginterferon α (IFN-α) has been the standard of care to treat chronic HCV infection for many years. Direct-acting antivirals, such as telaprevir and daclatasvir, were recently approved for therapy of hepatitis C. The combination of (S)-CCZ with these different classes of anti-HCV drugs is described in this example. HCV-Luc assay in parallel with ATPlite assay was performed in the presence of various concentrations of (S)-CCZ in combination with various concentrations of each drug. Using the MacSynergy II program based on Bliss independence model, three-dimensional surface plots were generated and log volume of synergism was calculated for each combination. The results were also analyzed with the CalcuSyn program, in which the combination indices were calculated.

HCV genotype 1b = format: in vivo, mice
HCV genotype 2a = format: in vivo, mice
HCV-Luc [4] = experiment: HCV-Luc assay of (S)-CCZ combinations, MacSynergy II and CalcuSyn analysis; format: cell-based; settings: for CalcuSyn CI value: (S)-CCZ in combination with the drug named; for antiviral effect of (S)-CCZ with the drug named: combination with (S)-CCZ
Protocol: Direct-acting antivirals, such as telaprevir and daclatasvir, were recently approved for therapy of hepatitis C. […] Using the MacSynergy II program based on Bliss independence model, three-dimensional surface plots were generated and log volume of synergism was calculated for each combination. The results were also analyzed with the CalcuSyn program, in which the combination indices were calculated.

NCCOCCOCCOCCOCCN1CCN(C(c2ccccc2)c2ccc(Cl)cc2)CC1 (racemic) [(CH2CH2O)4CH2CH2NH2 (R,S), 14-(4-((4-Chlorophenyl)(phenyl)methyl)piperazin-1-yl)-3,6,9,12-tetraoxatetradecan-1-amine]
EC50 (HCV-Luc [1]; Table 3, read-out: EC50): 0.004 ± 0.0022 µM
Selective Index (HCV-Luc [1]; Table 3): 3050
Selective Index (HCV-Luc [1]; Table 4): 3050
CC50 (in vitro): 12.2 ± 0.8 µM
CC50 (Huh7.5.1 cells): 12.2 ± 0.8 µM

CN1CCN(C(c2ccccc2)c2ccc(Cl)cc2)CC1 (racemic) [racemic CCZ, 1-((4-Chlorophenyl)(phenyl)methyl)-4-methylpiperazine, reference compound]
extracellular viral RNA level [2]: reduced
intracellular viral RNA level [2]: reduced
inhibitory activity in the HCVsc infection level (HCVsc, genotype 2a): significant inhibitory activities
inhibitory effect in replicon GT 1b cell line (HCV replicon GT 1b): did not show much inhibitory effect
inhibitory effect in replicon GT 2a cell line (HCV replicon GT 2a): did not show much inhibitory effect
inhibition in transient replicon GT 1a (replicon GT 1a): no inhibition was observed
inhibitory activity in HCVpp GT 1a (HCVpp GT 1a): None of racemic, (R) and (S)-CCZ showed any inhibitory activities
inhibitory activity in HCVpp GT 1b (HCVpp GT 1b): None of racemic, (R) and (S)-CCZ showed any inhibitory activities
EC50 (HCV-Luc [1]; Table 3, read-out: EC50): 0.044 ± 0.011 µM
CC50 (in vitro; Huh7.5.1 cells): 49.8 ± 17.2 µM

CN1CCN([C@H](c2ccccc2)c2ccc(Cl)cc2)CC1 [(R)-CCZ, (R)-1-((4-Chlorophenyl)(phenyl)methyl)-4-methylpiperazine]
extracellular viral RNA level [2]: reduced
intracellular viral RNA level [2]: reduced
inhibitory activity in the HCVsc infection level (HCVsc, genotype 2a): significant inhibitory activities
inhibitory effect in replicon GT 1b cell line (HCV replicon GT 1b): did not show much inhibitory effect
inhibitory effect in replicon GT 2a cell line (HCV replicon GT 2a): did not show much inhibitory effect
inhibition in transient replicon GT 1a (replicon GT 1a): no inhibition was observed
inhibitory activity in HCVpp GT 1a (HCVpp GT 1a): None of racemic, (R) and (S)-CCZ showed any inhibitory activities
inhibitory activity in HCVpp GT 1b (HCVpp GT 1b): None of racemic, (R) and (S)-CCZ showed any inhibitory activities
EC50 (HCV-Luc [1]; Table 3, read-out: EC50): 0.02 ± 0.005 µM
CC50 (Huh7.5.1 cells): 37.5 ± 4.2 µM

CN1CCN([C@@H](c2ccccc2)c2ccc(Cl)cc2)CC1 [(S)-CCZ, (S)-1-((4-Chlorophenyl)(phenyl)methyl)-4-methylpiperazine]
extracellular viral RNA level [2]: reduced
intracellular viral RNA level [2]: reduced
inhibitory activity in the HCVsc infection level (HCVsc, genotype 2a): significant inhibitory activities
inhibitory effect in replicon GT 1b cell line (HCV replicon GT 1b): did not show much inhibitory effect
inhibitory effect in replicon GT 2a cell line (HCV replicon GT 2a): did not show much inhibitory effect
inhibition in transient replicon GT 1a (replicon GT 1a): no inhibition was observed
inhibitory activity in HCVpp GT 1a (HCVpp GT 1a): None of racemic, (R) and (S)-CCZ showed any inhibitory activities
inhibitory activity in HCVpp GT 1b (HCVpp GT 1b): None of racemic, (R) and (S)-CCZ showed any inhibitory activities
EC50 (HCV-Luc [1]; Table 3, read-out: EC50): 0.024 ± 0.009 µM
CC50 (Huh7.5.1 cells): 33.4 ± 2.4 µM
cytotoxicity of the combinations [3]: without significant cytotoxicity
decrease of genotype 1b virus titer (HCV genotype 1b; 2 mg/kg daily): approximately 1 log
reduction of HCV titer from pretreatment baseline, genotype 1b (HCV genotype 1b; 50 mg/kg and 10 mg/kg daily, 4 weeks of treatment): 2 log
HCV titers during the treatment period (drug resistance), genotype 1b (HCV genotype 1b; during treatment): continued to decline during the treatment period without rebound
reduction of HCV titer from pretreatment baseline, genotype 2a (HCV genotype 2a; 50 mg/kg and 10 mg/kg daily, 6-week treatment): 1.5 log
HCV titers during the treatment period (drug resistance), genotype 2a (HCV genotype 2a; during treatment): continued to decline during the treatment period without rebound

CC(C)(C)NC(=O)N[C@H](C(=O)N1C[C@H]2[C@@H]([C@H]1C(=O)NC(CC1CCC1)C(=O)C(N)=O)C2(C)C)C(C)(C)C (stereo partly drawn) [Boceprevir]
CalcuSyn CI value (HCV-Luc [4]): 0.691 ± 0.114

COC(=O)N[C@H](C(=O)N1CCC[C@H]1c1nc(-c2ccc(-c3ccc(-c4c[nH]c([C@@H]5CCCN5C(=O)[C@@H](NC(=O)OC)C(C)C)n4)cc3)cc2)c[nH]1)C(C)C [Daclataivir]
CalcuSyn CI value (HCV-Luc [4]): 0.427 ± 0.142

CCN1CCN([C@@H](c2ccccc2)c2ccc(Cl)cc2)CC1 [Et (S), (S)-1-((4-Chlorophenyl)(phenyl)methyl)-4-ethylpiperazine]
EC50 (HCV-Luc [1]; Table 3, read-out: EC50): 0.02 ± 0.002 µM
CC50 (in vitro): 40 ± 1.1 µM
CC50 (Huh7.5.1 cells): 40 ± 1.1 µM

c1ccc(CCN(Cc2ccccc2)C2CCNCC2)cc1 [H, N-Benzyl-N-phenethylpiperidin-4-amine]
EC50 (HCV-Luc [1]; Table 6, read-out: EC50): 0.12 µM
CC50 (in vitro): 23.5 µM

CC(C)CN1CCC(N(CCc2ccccc2)Cc2ccccc2)CC1 [Isobutyl, N-Benzyl-1-isobutyl-N-phenethylpiperidin-4-amine]
EC50 (HCV-Luc [1]; Table 6, read-out: EC50): 4.76 µM
CC50 (in vitro): 37.6 µM

CC(C)N1CCC(N(CCc2ccccc2)Cc2ccccc2)CC1 [Isopropyl, N-Benzyl-1-isopropyl-N-phenethylpiperidin-4-amine]
EC50 (HCV-Luc [1]; Table 6, read-out: EC50): 0.94 µM
CC50 (in vitro): 37.6 µM

CN1CCC(N(CCc2ccccc2)Cc2ccccc2)CC1 [Me, N-Benzyl-1-methyl-N-phenethylpiperidin-4-amine]
EC50 (HCV-Luc [1]; Table 6, read-out: EC50): 0.92 µM
CC50 (in vitro): 41.1 µM

c1ccc(CCN(Cc2ccccc2)C2CCN(Cc3ccc4c(c3)OCCO4)CC2)cc1 [N-Benzyl-1-((2,3-dihydrobenzo[b][1,4]dioxin-6-yl)methyl)-N-phenethylpiperidin-4-amine]
EC50 (HCV-Luc [1]; Table 6, read-out: EC50): 2.78 µM
CC50 (in vitro): 36.6 µM

c1ccc(CCN(Cc2ccccc2)C2CCN(c3ccccc3)CC2)cc1 [Phenyl, N-Benzyl-N-phenethyl-1-phenylpiperidin-4-amine]
EC50 (HCV-Luc [1]): > 31.6 µM
CC50 (in vitro): > 100 µM

O=[S+]([O-])(c1ccccc1)N1CCC(N(CCc2ccccc2)Cc2ccccc2)CC1 [Phenylsulfonyl, N-Benzyl-N-phenethyl-1-(phenylsulfonyl)piperidin-4-amine]
EC50 (HCV-Luc [1]; Table 6, read-out: EC50): > 32.6 µM
CC50 (in vitro): > 100 µM

CCCN1CCC(N(CCc2ccccc2)Cc2ccccc2)CC1 [Propyl, N-Benzyl-N-phenethyl-1-propylpiperidin-4-amine]
EC50 (HCV-Luc [1]; Table 6, read-out: EC50): 0.37 µM
CC50 (in vitro): 38.2 µM

NC(=O)c1ncn([C@@H]2O[C@H](CO)[C@@H](O)[C@H]2O)n1 [Ribavirin]
CalcuSyn CI value (HCV-Luc [4]): 0.630 ± 0.106
antiviral effect of (S)-CCZ with the drug named (HCV-Luc [4]): highly synergistic

CC(C)OC(=O)[C@H](C)N[P@](=O)(OC[C@H]1O[C@@H](n2ccc(=O)[nH]c2=O)[C@](C)(F)[C@@H]1O)Oc1ccccc1 [Sofosbuvir]
CalcuSyn CI value (HCV-Luc [4]): 0.362 ± 0.075
antiviral effect of (S)-CCZ with the drug named (HCV-Luc [4]): highly synergistic

CCC[C@H](NC(=O)[C@@H]1[C@H]2CCC[C@H]2CN1C(=O)[C@@H](NC(=O)[C@@H](NC(=O)c1cnccn1)C1CCCCC1)C(C)(C)C)C(=O)C(=O)NC1CC1 [Telaprevir]
CalcuSyn CI value (HCV-Luc [4]): 0.426 ± 0.138

IFN-α
CalcuSyn CI value (HCV-Luc [4]): 0.609 ± 0.128
antiviral effect of (S)-CCZ with the drug named (HCV-Luc [4]): highly synergistic

From US20170001988A1, “PIPERIDINE AND PIPERAZINE DERIVATIVES AND THEIR USE IN TREATING VIRAL INFECTIONS AND CANCER” (THE UNITED STATES OF AMERICA, AS REPRESENTED BY THE …, priority 2013, published 2017)
